Measurements: patent US7279099B2, “Sludge treatment process” (FKOS, LLC, priority 2004, dated 2007)
Read-outs that look alike come from different tables or passages of the source.

Key:
[1] = tested on: bacteria; experiment: Disinfection of biosolids with chlorine dioxide: bacteria
[2] = tested on: viruses; experiment: Disinfection of biosolids with chlorine dioxide: viruses
[3] = tested on: Ascaris eggs; experiment: Disinfection of biosolids with chlorine dioxide alone: Ascaris eggs; details: concentrations as high as 1000 ppm
[4] = tested on: Ascaris; details: biosolids, closed system; cited from earlier work
[5] = tested on: Ascaris eggs; details: for Time to PFRP: closed system
[6] = 1500 mg/L
[7] = tested on: poliovirus; details: ozone at 20–30 mg/L at pH 3.0 for at least two hours; cited from earlier work
[8] = tested on: C. perfringens spores; details: only ozone used; cited from earlier work
[9] = tested on: Fecal coliform; details: ozone at 20–30 mg/L at pH 3.0 for at least two hours; cited from earlier work
[10] = 24 h, 500 mg/L

Which results are given for `[O][Cl+][O-]` [chlorine dioxide]?
inactivation of bacteria [1]: capable of inactivating; inactivation of viruses [2]: capable of inactivating; inactivation of Ascaris eggs [3]: not able to inactivate

For `O=NO` [nitrous acid], which “concentration capable of Ascaris inactivation” value [4] is on record?
The value was “above 400 mg/L”.

And the “remaining HNO2 dose for PFRP to be reached in two hours” value ([5]; predicted using Equation 2)?
Its value is “at least 25.46 mg/g”.

And the remaining nitrous acid [6]?
The remaining nitrous acid was “below 500 mg/L”.

Which inactivation of poliovirus [7] does the source give for `O=[O+][O-]` [ozone] here?
Its inactivation of poliovirus is “at least 90%”.

And the “inactivation of C. perfringens spores” value [8]?
Its value is “not effective”.

And the Fecal coliform reduction [9]?
Its Fecal coliform reduction is “reduced to a non-detectable level”.

Which “Time to PFRP” value ([5]; TSS 3.02 %, initial NO2 dose 697 mg/L) does the source give for `O=NO` [sodium nitrite] here?
Its value is 12 h.

And the “Time to PFRP” value ([5]; TSS 3.02 %, initial NO2 dose 1046 mg/L)?
Its value is 2 h.

And the “Time to PFRP” value ([5]; TSS 5.54 %, initial NO2 dose 1754 mg/L)?
Its value is 2 h.

What about the “Time to PFRP” value ([5]; TSS 5.54 %, initial NO2 dose 2573 mg/L) of the same compound?
The value was 2 h.

And the “remaining sodium nitrite level” value [10]?
Its value is 150 to 250 mg/L.

What about the “Average [NO2] Remaining” value (697 mg/L) of the same compound?
Its value is 340 mg/L.

And the “Average [NO2] Remaining” value (1046 mg/L)?
The value was 490 mg/L.

And the “Average [NO2] Remaining” value (1754 mg/L)?
The value was 1150 mg/L.

And the “Average [NO2] Remaining” value (2573 mg/L)?
Its value is 1580 mg/L.
